A short description of data set [1]: Apparent permeability across apical to basolateral side in human Caco2 cells at 10 uM measured after 2 hrs by lucifer yellow based LC-MS/MS analysis. It is filed as ADME, cell-based. As to conditions: Caco-2. (In general: Passage across Caco-2 layers is used to estimate intestinal permeability.)
Data set [2] in a line: Clearance in ICR mouse at 5 mg/kg, po by LC-MS/MS analysis. It is filed as ADME, organism-based. As to conditions: in vivo.
Data set [3] can be described thus: Genotoxicity in Salmonella typhimurium TA100 in presence or absence of rat S9 fraction by mini-Ames test. It is filed as toxicity. As to conditions: salmonella enterica subsp. enterica serovar typhimurium.
Data set [4] is described as follows: Genotoxicity in Salmonella typhimurium TA98 in presence or absence of rat S9 fraction by mini-Ames test. It is filed as toxicity. As to conditions: salmonella enterica subsp. enterica serovar typhimurium. (In general: The Ames test uses bacterial strains that need an amino acid and regain growth without it when mutated back.)
The target of data set [5] is T1, Protein mono-ADP-ribosyltransferase PARP3 (Homo sapiens, UniProt Q9Y6F1).
T1 sequence (Q9Y6F1 whole entry): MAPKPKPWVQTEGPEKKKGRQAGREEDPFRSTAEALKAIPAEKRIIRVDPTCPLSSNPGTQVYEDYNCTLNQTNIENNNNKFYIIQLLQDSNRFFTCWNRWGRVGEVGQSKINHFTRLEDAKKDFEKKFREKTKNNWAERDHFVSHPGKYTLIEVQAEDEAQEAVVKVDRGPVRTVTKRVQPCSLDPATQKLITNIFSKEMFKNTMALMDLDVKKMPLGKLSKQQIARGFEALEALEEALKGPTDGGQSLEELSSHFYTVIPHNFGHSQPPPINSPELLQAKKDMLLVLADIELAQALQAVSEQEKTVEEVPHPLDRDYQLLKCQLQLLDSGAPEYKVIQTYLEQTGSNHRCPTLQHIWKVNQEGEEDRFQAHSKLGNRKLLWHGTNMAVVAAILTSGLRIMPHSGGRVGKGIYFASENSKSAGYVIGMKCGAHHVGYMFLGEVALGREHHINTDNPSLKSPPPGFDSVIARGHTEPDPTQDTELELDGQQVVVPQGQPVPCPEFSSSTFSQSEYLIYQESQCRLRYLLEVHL
Briefly: Inhibition of ARTD3 (unknown origin) measured after 4 hrs in presence of NAD+ by fluorescence assay.

For the next data set, the system named is RKO. Briefly: Antiproliferative activity against APC wild-type human RKO cells at 10 uM measured after 5 days by MTS assay. Type of data set: functional, cell-based. (In general: Tetrazolium assays rely on reduction of a dye to a coloured formazan, in cell work by metabolically active cells.)
Data set [6] has as its target Poly [ADP-ribose] polymerase 1 (Homo sapiens, UniProt P09874). The data set can be described thus: Inhibition of ARTD1 (unknown origin) measured after 30 mins in presence of NAD+ by fluorescence assay.
Data set [7] concerns the target Poly [ADP-ribose] polymerase 2 (Homo sapiens, UniProt Q9UGN5). The data set can be described thus: Inhibition of ARTD2 (unknown origin) measured after 30 mins in presence of NAD+ by fluorescence assay.
In data set [8] the target is Protein mono-ADP-ribosyltransferase PARP4 (Homo sapiens, UniProt Q9UKK3).

Structures are written as SMILES. Calls of active or inactive are those of the source. The calls are words filed in the database; no cut-off is given here.

Sequence of Poly [ADP-ribose] polymerase 2 (Q9UGN5 whole entry): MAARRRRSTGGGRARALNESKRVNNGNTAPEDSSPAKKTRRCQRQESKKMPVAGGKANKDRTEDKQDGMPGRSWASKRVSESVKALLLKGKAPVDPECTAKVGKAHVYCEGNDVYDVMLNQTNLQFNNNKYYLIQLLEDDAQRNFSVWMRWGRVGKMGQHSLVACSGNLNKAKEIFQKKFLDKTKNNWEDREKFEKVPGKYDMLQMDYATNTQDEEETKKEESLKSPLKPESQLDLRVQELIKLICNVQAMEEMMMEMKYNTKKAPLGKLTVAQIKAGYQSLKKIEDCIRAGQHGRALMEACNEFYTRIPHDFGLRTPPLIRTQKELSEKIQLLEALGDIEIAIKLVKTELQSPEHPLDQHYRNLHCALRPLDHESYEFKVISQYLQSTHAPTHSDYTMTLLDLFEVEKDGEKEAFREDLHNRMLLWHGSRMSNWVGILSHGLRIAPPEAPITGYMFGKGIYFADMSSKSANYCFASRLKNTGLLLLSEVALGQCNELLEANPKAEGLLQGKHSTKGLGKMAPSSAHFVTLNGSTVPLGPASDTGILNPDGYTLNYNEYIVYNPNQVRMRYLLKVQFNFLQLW
Sequence of Poly [ADP-ribose] polymerase 1 (P09874 whole entry): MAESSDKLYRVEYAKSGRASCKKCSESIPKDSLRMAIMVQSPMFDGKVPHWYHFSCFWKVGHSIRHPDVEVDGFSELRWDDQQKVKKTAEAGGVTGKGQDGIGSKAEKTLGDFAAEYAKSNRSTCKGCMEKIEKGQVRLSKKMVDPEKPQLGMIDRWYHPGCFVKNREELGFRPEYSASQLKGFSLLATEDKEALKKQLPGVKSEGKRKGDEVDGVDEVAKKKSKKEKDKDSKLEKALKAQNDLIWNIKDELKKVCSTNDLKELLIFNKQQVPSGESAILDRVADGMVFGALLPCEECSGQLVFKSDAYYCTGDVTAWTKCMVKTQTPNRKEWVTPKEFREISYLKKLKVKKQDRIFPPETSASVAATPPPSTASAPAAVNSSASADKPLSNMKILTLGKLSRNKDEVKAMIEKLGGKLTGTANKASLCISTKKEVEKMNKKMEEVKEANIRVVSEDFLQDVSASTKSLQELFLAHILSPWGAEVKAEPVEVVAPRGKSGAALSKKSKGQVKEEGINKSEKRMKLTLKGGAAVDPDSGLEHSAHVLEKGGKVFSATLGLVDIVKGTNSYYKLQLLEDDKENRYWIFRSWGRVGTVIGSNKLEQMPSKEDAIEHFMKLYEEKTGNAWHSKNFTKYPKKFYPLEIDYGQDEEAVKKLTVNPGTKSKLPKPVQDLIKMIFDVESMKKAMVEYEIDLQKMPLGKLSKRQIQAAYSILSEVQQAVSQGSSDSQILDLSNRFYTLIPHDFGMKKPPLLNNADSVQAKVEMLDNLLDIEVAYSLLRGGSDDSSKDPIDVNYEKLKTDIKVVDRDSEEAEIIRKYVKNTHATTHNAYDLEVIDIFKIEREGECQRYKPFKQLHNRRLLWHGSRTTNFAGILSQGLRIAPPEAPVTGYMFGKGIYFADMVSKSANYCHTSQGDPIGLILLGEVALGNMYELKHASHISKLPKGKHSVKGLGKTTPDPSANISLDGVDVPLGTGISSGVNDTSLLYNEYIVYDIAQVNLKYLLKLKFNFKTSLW
Sequence of Protein mono-ADP-ribosyltransferase PARP4 (Q9UKK3 whole entry): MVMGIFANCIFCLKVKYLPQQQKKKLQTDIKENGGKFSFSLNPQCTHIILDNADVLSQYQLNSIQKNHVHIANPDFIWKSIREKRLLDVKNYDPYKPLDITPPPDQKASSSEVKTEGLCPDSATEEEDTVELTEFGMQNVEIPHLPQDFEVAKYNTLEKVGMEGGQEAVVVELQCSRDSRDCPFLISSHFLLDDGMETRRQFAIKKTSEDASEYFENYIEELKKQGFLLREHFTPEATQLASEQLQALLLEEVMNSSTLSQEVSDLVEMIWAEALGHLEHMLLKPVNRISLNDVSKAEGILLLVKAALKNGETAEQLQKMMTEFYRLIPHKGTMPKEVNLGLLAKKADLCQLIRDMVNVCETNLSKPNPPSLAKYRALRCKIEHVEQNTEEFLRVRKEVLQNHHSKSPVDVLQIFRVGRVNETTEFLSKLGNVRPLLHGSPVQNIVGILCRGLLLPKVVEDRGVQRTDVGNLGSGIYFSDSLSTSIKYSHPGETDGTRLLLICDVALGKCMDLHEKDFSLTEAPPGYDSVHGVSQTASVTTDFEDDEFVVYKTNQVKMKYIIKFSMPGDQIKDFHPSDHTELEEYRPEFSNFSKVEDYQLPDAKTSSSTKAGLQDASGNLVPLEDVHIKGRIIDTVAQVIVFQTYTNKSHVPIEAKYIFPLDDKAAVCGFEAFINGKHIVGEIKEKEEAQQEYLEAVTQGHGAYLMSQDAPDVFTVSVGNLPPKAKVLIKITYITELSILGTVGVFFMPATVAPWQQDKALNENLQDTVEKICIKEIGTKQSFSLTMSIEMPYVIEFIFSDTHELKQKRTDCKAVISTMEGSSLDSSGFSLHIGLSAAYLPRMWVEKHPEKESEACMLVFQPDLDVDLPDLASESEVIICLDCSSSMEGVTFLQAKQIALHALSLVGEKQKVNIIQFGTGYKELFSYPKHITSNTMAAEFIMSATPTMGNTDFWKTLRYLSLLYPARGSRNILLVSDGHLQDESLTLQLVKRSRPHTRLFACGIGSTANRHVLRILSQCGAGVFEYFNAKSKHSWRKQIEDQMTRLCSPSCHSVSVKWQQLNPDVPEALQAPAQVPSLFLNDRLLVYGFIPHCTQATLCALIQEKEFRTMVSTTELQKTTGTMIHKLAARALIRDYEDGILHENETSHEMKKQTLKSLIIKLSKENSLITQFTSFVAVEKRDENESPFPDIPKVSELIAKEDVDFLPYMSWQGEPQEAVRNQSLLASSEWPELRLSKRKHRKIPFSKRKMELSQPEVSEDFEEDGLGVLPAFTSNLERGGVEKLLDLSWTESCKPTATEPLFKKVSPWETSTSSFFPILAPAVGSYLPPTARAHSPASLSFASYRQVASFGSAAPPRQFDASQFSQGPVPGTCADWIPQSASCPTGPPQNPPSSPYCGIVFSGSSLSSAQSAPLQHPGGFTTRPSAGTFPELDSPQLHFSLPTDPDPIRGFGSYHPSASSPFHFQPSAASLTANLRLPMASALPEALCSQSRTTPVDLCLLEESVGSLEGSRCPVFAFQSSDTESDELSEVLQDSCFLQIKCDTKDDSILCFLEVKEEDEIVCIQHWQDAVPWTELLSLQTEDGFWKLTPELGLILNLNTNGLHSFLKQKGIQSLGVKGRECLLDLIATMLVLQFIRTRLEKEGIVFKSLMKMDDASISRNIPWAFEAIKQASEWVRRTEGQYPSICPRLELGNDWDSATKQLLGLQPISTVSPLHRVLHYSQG

For the compound `O=C(N[C@H]1C[C@H](c2nnc(-c3ccncn3)n2-c2ccccc2Cl)C1)c1ccnc2cccnc12`, the Papp A→B (as a rule, the apparent permeability from the apical to the basolateral side of a cell layer) at 2 h, 10 µM in [1] turned out to be 3.1 ×10⁻⁶ cm/s.

Regarding `CS(=O)(=O)c1ccc(-c2nnc([C@H]3C[C@H](NC(=O)c4cccc5cccnc45)C3)n2-c2ccccc2F)nc1`, the CL/F (commonly clearance divided by bioavailability, as obtained after extravascular dosing) in data set [2] is 28.2 mL/min/kg.

Turning to `CCOc1ccc(-c2nnc([C@H]3C[C@H](NC(=O)c4ccccn4)C3)n2-c2ccccc2F)nc1`, in data set [2], the CL/F is 34.8 mL/min/kg. Further, the Activity entry in [3] and in data set [4] was “Non-Toxic” each time. The Papp A→B at 2 h, 10 µM in [1] was 39.5 to 40 ×10⁻⁶ cm/s. Moreover, in data set [5], the IC50 – broadly, the concentration at which inhibition is half-maximal – was more than 10 µM. Moreover, the outcome in the data set on RKO was Active.

The compound `O=C(N[C@H]1C[C@H](c2nnc(-c3ccccn3)n2-c2ccccc2F)C1)c1ccnc2cc(F)cnc12` had a CL/F in data set [2] of 16.5 mL/min/kg.

Turning to `N#Cc1ccc2c(c1)[nH]c(=O)n2[C@H]1C[C@H](c2nnc(-c3ccncn3)n2-c2ccccc2Cl)C1`, the IC50 in data set [6], in data set [7], in data set [8] and in [5] was more than 10 µM each time.
